From patent US11066369B2, “N-(pyridin-2-yl)pyridine-sulfonamide derivatives and their use in the treatment of disease” (Novartis AG, priority 2016, dated 2021) come the findings set out here.

One experiment concerns the target T1, delF508-CFTR (Homo sapiens, UniProt P13569, DEL508-508).
T1 construct: functional activity of the CFTR channel (Chloride ion transport) in patient derived primary human bronchial epithelial cells; host or cells: patient-derived primary human bronchial epithelial cells (delF508-CFTR)
Nature of the experiment: Measurement of delF508-CFTR functional activity in primary human bronchial epithelial cells (HBECs) using Multi-Transepithelial Clamp Circuit (MTECC-24) assay. The class given is cell-based. The settings on record: primary CF HBECs; for MTECC24 CFHBEC- Amax %: test compound added 24h before assay plus potentiator, relative to reference combination (2 μM corrector + 0.5 μM potentiator); for EC50: test compound added 24h before assay, in the presence of potentiator, mean of at least two replicates, read-out: MTECC24 CFHBEC- EC50. The gist of the method:
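Patient-derived primary delF508-CFTR HBECs, differentiated at air-liquid interface ~2 weeks, treated basolaterally with compound for 24 h, then apical and basolateral compound in HEPES pH 7.4 assay medium. Equivalent short-circuit current (Ieq) recorded on MTECC-24 with sequential amiloride, forskolin, potentiator and INH-172; normalized to 0.1% DMSO, EC50 from curve fit.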

The target of experiment [1] is T2, horseradish peroxidase (HRP) tagged delF508-CFTR (Homo sapiens, UniProt P13569, DEL508-508).
T2 construct: expressed in transfected cells
The experiment can be described thus: Measurement of delF508-CFTR-HRP surface expression in CFBE41o- cells.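 For DelF508-CFTR-HRP Amax %: percent efficacy relative to reference corrector lumacaftor.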 The class given is cell-based. As to conditions: delF508-CFTR-HRP surface expression, CFBE41o- cells; for Emax: read-out: DelF508-CFTR-HRP Amax %; for EC50: read-out: DelF508-CFTR-HRP EC50. The gist of the method:
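CFBE41o- bronchial epithelial cells stably expressing delF508-CFTR with HRP in the fourth extracellular loop; expression induced 48h with 500 ng/mL doxycycline, then compounds added (top 10 μM, 10-point 3-fold series, ≤0.5% DMSO) for 24h at 37° C. Surface HRP measured by luminescence with cell-impermeant substrate; EC50 from logistic fit of triplicates, plate-normalized to lowest concentration; efficacy also relative to a reference corrector.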

T1 sequence (P13569 with tags, fused parts or gaps DEL508-508): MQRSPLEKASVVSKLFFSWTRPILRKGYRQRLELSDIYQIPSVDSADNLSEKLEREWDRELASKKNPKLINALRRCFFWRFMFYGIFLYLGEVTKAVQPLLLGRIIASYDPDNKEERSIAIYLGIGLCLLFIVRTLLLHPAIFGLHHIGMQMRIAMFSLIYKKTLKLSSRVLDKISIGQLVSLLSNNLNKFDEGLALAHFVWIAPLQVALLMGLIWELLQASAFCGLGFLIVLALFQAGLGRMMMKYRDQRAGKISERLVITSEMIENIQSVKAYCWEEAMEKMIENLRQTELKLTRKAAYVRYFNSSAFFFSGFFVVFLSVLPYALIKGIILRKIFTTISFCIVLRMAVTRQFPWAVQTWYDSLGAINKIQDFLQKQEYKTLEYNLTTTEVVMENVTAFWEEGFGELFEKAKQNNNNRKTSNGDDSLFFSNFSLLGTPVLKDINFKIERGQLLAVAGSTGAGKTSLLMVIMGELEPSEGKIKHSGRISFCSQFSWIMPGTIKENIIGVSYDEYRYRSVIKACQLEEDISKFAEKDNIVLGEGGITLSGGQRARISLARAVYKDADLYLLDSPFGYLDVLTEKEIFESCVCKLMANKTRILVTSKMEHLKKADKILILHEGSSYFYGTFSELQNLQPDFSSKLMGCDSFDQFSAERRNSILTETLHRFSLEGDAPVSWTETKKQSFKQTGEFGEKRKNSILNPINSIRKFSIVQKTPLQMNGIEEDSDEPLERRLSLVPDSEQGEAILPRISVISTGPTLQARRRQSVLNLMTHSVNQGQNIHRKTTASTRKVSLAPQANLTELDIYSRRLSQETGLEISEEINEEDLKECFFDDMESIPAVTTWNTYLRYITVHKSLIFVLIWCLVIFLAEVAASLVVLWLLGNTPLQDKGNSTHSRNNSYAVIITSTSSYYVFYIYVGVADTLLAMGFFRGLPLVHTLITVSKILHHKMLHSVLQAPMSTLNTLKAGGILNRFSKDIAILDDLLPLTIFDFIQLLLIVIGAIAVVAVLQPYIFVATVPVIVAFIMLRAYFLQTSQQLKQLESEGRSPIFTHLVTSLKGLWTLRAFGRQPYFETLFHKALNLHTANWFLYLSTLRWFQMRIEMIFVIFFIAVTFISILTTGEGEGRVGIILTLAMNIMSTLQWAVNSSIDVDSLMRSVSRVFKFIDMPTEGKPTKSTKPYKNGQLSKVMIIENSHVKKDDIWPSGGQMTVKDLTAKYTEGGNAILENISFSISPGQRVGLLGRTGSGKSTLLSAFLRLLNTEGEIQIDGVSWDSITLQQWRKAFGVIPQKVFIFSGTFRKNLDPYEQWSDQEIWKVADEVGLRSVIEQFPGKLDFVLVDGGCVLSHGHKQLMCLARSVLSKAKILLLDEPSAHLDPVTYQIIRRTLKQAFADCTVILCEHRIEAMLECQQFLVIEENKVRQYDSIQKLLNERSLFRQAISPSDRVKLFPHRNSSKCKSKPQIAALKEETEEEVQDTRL
T2 sequence (P13569 with tags, fused parts or gaps DEL508-508): as above

Usually EC50 stands for the midpoint of the concentration-response curve. As for `Cc1ccc(F)cc1-c1nc(NS(=O)(=O)c2cccc(N[C@@H]3COC[C@H]3O)n2)ccc1Cl` [Example 127, N-(5-chloro-6-(5-fluoro-2-methylphenyl)pyridin-2-yl)-6-(((3R,4S)-4-hydroxytetrahydrofuran-3-yl)amino)pyridine-2-sulfonamide], at delF508-CFTR, the “MTECC24 CFHBEC- Amax %” value was 45.4% and the EC50 was determined as 15.7 nM. In experiment [1], the Emax was determined as 382% and the EC50 was determined as 2320 nM.

Regarding `CC1(C(=O)O)CCN(c2cccc(S(=O)(=O)Nc3ccc(Cl)c(-c4cccc(F)c4Cl)n3)n2)CC1` [Example 245, 1-(6-(N-(5-chloro-6-(2-chloro-3-fluorophenyl)pyridin-2-yl)sulfamoyl)pyridin-2-yl)-4-methylpiperidine-4-carboxylic Acid], on delF508-CFTR, the “MTECC24 CFHBEC- Amax %” value was found to be 48.0% and the EC50 amounted to 43.1 nM. In experiment [1], the Emax is 246% and the EC50 stood at 3440 nM.

As for `Cc1ccc(F)cc1-c1nc(NS(=O)(=O)c2ccnc(N3CC(O)C3)c2)ccc1C(F)(F)F` [Example 324, N-(6-(5-fluoro-2-methylphenyl)-5-(trifluoromethyl)pyridin-2-yl)-2-(3-hydroxyazetidin-1-yl)pyridine-4-sulfonamide], at delF508-CFTR, the “MTECC24 CFHBEC- Amax %” value was 49.4% and the EC50 came out at 47.9 nM. Further, in experiment [1], the Emax amounted to 402% and the EC50 turned out to be 2640 nM.

In the case of `Cc1ccccc1-c1nc(NS(=O)(=O)c2cccc(N3CCN(C(N)=O)CC3)n2)ccc1C(F)(F)F` [Example 184, 4-(6-(N-(6-(o-tolyl)-5-(trifluoromethyl)pyridin-2-yl)sulfamoyl)pyridin-2-yl)piperazine-1-carboxamide], on delF508-CFTR, the “MTECC24 CFHBEC- Amax %” value was found to be 69.2% and the EC50 was determined as 53.5 nM. In addition, in experiment [1], the Emax came out at 149% and the EC50 came out at 835 nM.

On to `Cc1ccccc1-c1nc(NS(=O)(=O)c2cccc(N3CCN(C)C(=O)C3)n2)ccc1C(F)(F)F` [Example 196, 6-(4-methyl-3-oxopiperazin-1-yl)-N-(6-(o-tolyl)-5-(trifluoromethyl)pyridin-2-yl)pyridine-2-sulfonamide], for which, at delF508-CFTR, the “MTECC24 CFHBEC- Amax %” value was determined as 82.4% and the EC50 came to 9.6 nM. In experiment [1], the Emax was 389% and the EC50 is 3060 nM.

On to `Cc1cccc(C)c1-c1nc(NS(=O)(=O)c2cccc(N3CC(O)C3)n2)ccc1Cl` [Example 231, N-(5-chloro-6-(2,6-dimethylphenyl)pyridin-2-yl)-6-(3-hydroxyazetidin-1-yl)pyridine-2-sulfonamide], for which, on delF508-CFTR, the “MTECC24 CFHBEC- Amax %” value is given as 71.8% and the EC50 came out at 20.6 nM. In experiment [1], the Emax is 465% and the EC50 turned out to be 1160 nM.

With `Cc1ccccc1-c1nc(NS(=O)(=O)c2cccc(N3CCN(C(=O)OC(C)(C)C)CC3)n2)ccc1C(F)(F)F` [Example 160, tert-butyl 4-(6-(N-(6-(o-tolyl)-5-(trifluoromethyl)pyridin-2-yl)sulfamoyl)pyridin-2-yl)piperazine-1-carboxylate], on delF508-CFTR, the “MTECC24 CFHBEC- Amax %” value was found to be 88.2% and the EC50 was 23.3 nM. In experiment [1], the Emax stood at 476% and the EC50 stood at 743 nM.

Consider `Cc1cccc(C)c1-c1nc(NS(=O)(=O)c2cccc(N3CCNC(=O)C3)n2)ccc1Cl` [Example 131, N-(5-chloro-6-(2,6-dimethylphenyl)pyridin-2-yl)-6-(3-oxopiperazin-1-yl)pyridine-2-sulfonamide], for which, at delF508-CFTR, the “MTECC24 CFHBEC- Amax %” value stood at 78.4% and the EC50 was 25 nM. In experiment [1], the Emax is 729% and the concentration for a half-maximal effect (EC50) amounted to 2140 nM.

Take `CC1(C(=O)O)CCN(c2cccc(S(=O)(=O)Nc3ccc(C(F)(F)F)c(-c4cccc(F)c4Cl)n3)n2)CC1` [Example 242, 1-(6-(N-(6-(2-chloro-3-fluorophenyl)-5-(trifluoromethyl)pyridin-2-yl)sulfamoyl)pyridin-2-yl)-4-methylpiperidine-4-carboxylic Acid]: at delF508-CFTR, the “MTECC24 CFHBEC- Amax %” value is 63.2% and the EC50 was 20.3 nM. In experiment [1], the Emax came out at 468% and the half-maximal effective concentration (EC50) was 2920 nM.

Regarding `Cc1ccccc1-c1nc(NS(=O)(=O)c2cccc(N3C[C@H](O)[C@@H](N4CCCC4)C3)n2)ccc1C(F)(F)F` [Example 118, 6-((3′S,4'S)-4′-hydroxy-[1,3′-bipyrrolidin]-1′-yl)-N-(6-(o-tolyl)-5-(trifluoromethyl)pyridin-2-yl)pyridine-2-sulfonamide], on delF508-CFTR, the “MTECC24 CFHBEC- Amax %” value is listed as 78.5% and the concentration for a half-maximal effect (EC50) was 11.7 nM. In experiment [1], the Emax is 492% and the EC50 turned out to be 2600 nM.

Regarding `Cc1cccc(C)c1-c1cc(C(F)(F)F)cc(NS(=O)(=O)c2cccc(N)n2)n1` [Example 5, 6-amino-N-(6-(2,6-dimethylphenyl)-4-(trifluoromethyl)pyridin-2-yl)pyridine-2-sulfonamide], at delF508-CFTR, the “MTECC24 CFHBEC- Amax %” value was 97.56% and the EC50 stood at 3 nM. Further, in experiment [1], the Emax was 629% and the EC50 is 1150 nM.

Turning to `Cc1cccc(C)c1-c1nc(NS(=O)(=O)c2cccc(N3CCN(C(=O)OC(C)(C)C)CC3)n2)ccc1Cl` [Example 162, tert-butyl 4-(6-(N-(5-chloro-6-(2,6-dimethylphenyl)pyridin-2-yl)sulfamoyl)pyridin-2-yl)piperazine-1-carboxylate], at delF508-CFTR, the “MTECC24 CFHBEC- Amax %” value is given as 58.8% and the concentration giving a half-maximal response (EC50) was 17.7 nM. For the same compound, in experiment [1], the Emax stood at 662% and the EC50 was determined as 666 nM.

`Cc1cccc(C)c1-c1cc(Cl)cc(NS(=O)(=O)c2cccc(N)n2)n1` [Example 10, 6-amino-N-(4-chloro-6-(2,6-dimethylphenyl)pyridin-2-yl)pyridine-2-sulfonamide]: at delF508-CFTR, the “MTECC24 CFHBEC- Amax %” value turned out to be 87.0% and the EC50 is 5.8 nM. Also, in experiment [1], the Emax came out at 592% and the EC50 came out at 1530 nM.

Take `Cc1ccccc1-c1nc(NS(=O)(=O)c2cccc(O[C@@H]3COC[C@]3(C)O)n2)ccc1C(F)(F)F` (single isomer, unassigned) [Example 294]: at delF508-CFTR, the “MTECC24 CFHBEC- Amax %” value came to 81.9% and the EC50 amounted to 11 nM. Further, in experiment [1], the Emax is 641% and the concentration for a half-maximal effect (EC50) stood at 2360 nM.

`Cc1ccc(F)cc1-c1nc(NS(=O)(=O)c2cccc(N3CCC[C@@H](C(=O)O)C3)n2)ccc1C(F)(F)F` [Example 357, (3R)-1-(6-{[6-(5-fluoro-2-methylphenyl)-5-(trifluoromethyl)pyridin-2-yl]sulfamoyl}pyridin-2-yl)piperidine-3-carboxylic Acid]: on delF508-CFTR, the “MTECC24 CFHBEC- Amax %” value was determined as 70.6% and the EC50 worked out at 38.5 nM. The EC50 in experiment [1] turned out to be 2060 nM.

Regarding `O=S(=O)(Nc1ccc(C(F)(F)F)c(-c2ccccc2C2CC2)n1)c1cccc(N2CC(O)C2)n1` [Example 208, N-(6-(2-cyclopropylphenyl)-5-(trifluoromethyl)pyridin-2-yl)-6-(3-hydroxyazetidin-1-yl)pyridine-2-sulfonamide], on delF508-CFTR, the “MTECC24 CFHBEC- Amax %” value is reported as 88.1% and the EC50 stood at 5.2 nM. Moreover, in experiment [1], the Emax came to 607% and the EC50 was determined as 1380 nM.

As for `Cc1ccc(C#N)cc1-c1nc(NS(=O)(=O)c2cccc(N3CCNCC3)n2)ccc1C(F)(F)F` [Example 311, N-(6-(5-cyano-2-methylphenyl)-5-(trifluoromethyl)pyridin-2-yl)-6-(piperazin-1-yl)pyridine-2-sulfonamide], on delF508-CFTR, the “MTECC24 CFHBEC- Amax %” value was 61.7% and the EC50 was 220 nM. Further, in experiment [1], the Emax turned out to be 179% and the EC50 turned out to be 3270 nM.

Turning to `Cc1ccc(F)cc1-c1nc(NS(=O)(=O)c2cccc(N3CC(O)C3)n2)ccc1C(F)(F)F` [Example 220, N-(6-(5-fluoro-2-methylphenyl)-5-(trifluoromethyl)pyridin-2-yl)-6-(3-hydroxyazetidin-1-yl)pyridine-2-sulfonamide], on delF508-CFTR, the “MTECC24 CFHBEC- Amax %” value stood at 58.6% and the 50% effective concentration (EC50) turned out to be 3.2 nM. Moreover, in experiment [1], the Emax worked out at 902% and the EC50 amounted to 1610 nM.

For the compound `O=S(=O)(Nc1ccc(C(F)(F)F)c(-c2ccccc2C2CC2)n1)c1cccc(N2CCNCC2)n1` [Example 148, N-(6-(2-cyclopropylphenyl)-5-(trifluoromethyl)pyridin-2-yl)-6-(piperazin-1-yl)pyridine-2-sulfonamide], at delF508-CFTR, the “MTECC24 CFHBEC- Amax %” value turned out to be 74.1% and the EC50 is 85.4 nM. Besides, in experiment [1], the Emax is 363% and the EC50 was found to be 2460 nM.

In the case of `Cc1ccccc1-c1nc(NS(=O)(=O)c2cccc(N[C@H]3C[C@@](C)(C(=O)O)C3)n2)ccc1C(F)(F)F` [Example 356, (1s,3s)-1-methyl-3-((6-(N-(6-(o-tolyl)-5-(trifluoromethyl)pyridin-2-yl)sulfamoyl)pyridin-2-yl)amino)cyclobutanecarboxylic Acid], on delF508-CFTR, the “MTECC24 CFHBEC- Amax %” value is recorded as 70.1% and the EC50 came out at 7.49 nM. For the same compound, in experiment [1], the “DelF508-CFTR-HRP Amax %” value stood at 553.8% and the EC50 stood at 1510 nM.
